Source: US4859663A, “Multiply substituted pyridine 1-oxide compounds which are useful in treating brain disorders” (Hoechst Aktiengesellschaft, priority 1985, dated 1989)
Where two headings read alike, the source gives them in different places.

Columns and labels:
Acute toxicity (LD50) = conditions: in vivo, mouse, mortality within 7 days
Description: 2. Acute toxicity The standard method for the determination of the LD50 values or LD50 ranges via the mortality occurring in Naval Medical Research Institute mice within 7 days after a single intravenous (i.v.), intraperitoneal (i.p.) or oral (p.o.) administration was used.

anesthetized male rats = experiment: EEG hypoxia-tolerance test (antihypoxic / cerebroprotective action); format: in vivo, rat; conditions: ip, read-out: % change in the EEG-RL (EEG hypoxia recovery latency period); for change in vivo at 25 mg/kg: 25 mg/kg i.p.
Procedure: The compounds according to the invention were tested for a cerebroprotective action towards damage caused by hypoxia by means of the EEG hypoxia-tolerance test (EEG: Electroencephalogram) comparing with the most important representatives of types of compounds which belong to the state of the art. In this method, anesthetized male rats with implanted EEG electrodes are subjected to progressive hypoxia by passing nitrogen into a chamber. […] The criterion used for assessment of an antihypoxic action is the EEG hypoxia recovery latency period (EEG-RL), which is defined as the time from the opening of the chamber after onset of EEG silence until the first signals appear again. […] The compounds according to the invention were administered intraperitoneally 15 minutes before the start of hypoxia. The group size was n =8.

[1] = tested on: naive mice of the male sex; experiment: Scopolamine-induced retrograde amnesia in the passive avoidance test; format: in vivo, mouse; conditions: for minimal effective dose: read-out: minimal effective dose (MED) countering scopolamine
Procedure: (a) Effect on the scopolamine-induced retrograde amnesia in the passive avoidance test
The test arrangement comprises a light/dark box with an electrifiable mesh floor in the dark section. 90 minutes after administration of placebo and product, naive mice of the male sex are treated subcutaneously with scopolamine hydrobromide (3 mg/kg). The mice are placed in the light section of the box 5 minutes later. After transferring into the dark section they receive there an electric shock to the feet which produces an unpleasant sensation. 24 hours thereafter, each mouse is placed once in the light section of the test apparatus, and the residence time (max. 180 seconds) is measured. […] The significant action of a test substance is calculated, using a median test, by comparison with the control group. The minimal effective dose (MED) of a product is regarded as that which results in a significant action countering scopolamine.

rat = experiment: Gamma-butyrolactone test on the rat (EEG); format: in vivo
Description: (b) Gamma-butyrolactone test on the rat
It is known from the literature (L.I. Wolfson et al., J. Neurochem. 29, 777 (1977)) that gamma-butyrolactone (GBL), inter alia, induces metabolic disturbances in the brain which can be followed by changes in the EEG. The compounds of the formula I are able to antagonize this action of GBL on the EEG.

[2] = rat, 15 minutes before hypoxia, n = 8, vs untreated control, shortening (negative) = protective
[3] = rat, 50 mg/kg i.p., 15 minutes before hypoxia, n = 8, vs untreated control, shortening (negative) = protective

Row | SMILES | LD50 at 168 h (Acute toxicity (LD50); iv, single i.v. administration) [mg/kg] | change in vivo at 25 mg/kg (anesthetized male rats; [2]) [%] | other results
1 | Cc1cc(N2CCCNCC2)c([N+](=O)[O-])c(C)[n+]1[O-] [Example 11] | 200 | – | change in vivo at 50 mg/kg (anesthetized male rats; Rattus norvegicus): -23%
2 | Cc1cc(N2CCSCC2)c(C#N)c(C)n1 [3-Cyano-2,6-dimethyl-4-(4-thiomorpholinyl)pyridine, reference compound] | – | – | LD50 at 168 h (Acute toxicity (LD50); ip, single i.p. administration): 150 to 300 mg/kg
3 | Cc1cc(N2CCN(c3ccc(F)cc3)CC2)c([N+](=O)[O-])c(C)[n+]1[O-] [Example 26] | 200 | -27 | –
4 | Cc1cc(N2CCCCCC2)c(C#N)c(C)[n+]1[O-] [Example 22] | 50 to 100 | -38 | –
5 | Cc1cc(N2CCCCC2)c(C#N)c(C)[n+]1[O-] [Example 14] | 100 to 200 | – | change in vivo at 50 mg/kg (anesthetized male rats; [3]): -44%
6 | Cc1cc(N2CCCC2)c(C#N)c(C)[n+]1[O-] [Example 13] | 200 | – | change in vivo at 50 mg/kg (anesthetized male rats; [3]): -32%
7 | NC(=O)CN1CCCC1=O [piracetam, 2-oxo-1-pyrrolidineacetamide, reference compound] | – | – | minimal effective dose ([1]; Mus musculus, po): 100 mg/kg
8 | COC(=O)c1c(C)nc(C)c(C#N)c1-c1ccccc1[N+](=O)[O-] [Methyl 3-cyano-2,6-dimethyl-4-(2-nitrophenyl)pyridine-5-carboxylate, reference compound] | 50 to 100 | – | change in vivo at 50 mg/kg (anesthetized male rats; [3]): 16%
9 | Cc1cc(N2CCOCC2)c([N+](=O)[O-])c(C)[n+]1[O-] [Example 5, 2,6-Dimethyl-4-(4-morpholinyl)-3-nitropyridine 1-oxide] | > 200 | -16 | –
10 | Cc1cc(N2CCCCC2)c([N+](=O)[O-])c(C)[n+]1[O-] [Example 28] | 100 to 200 | -12 | –
11 | c1ccc(Oc2cccnc2)cc1 [3-Phenoxypyridine, reference compound] | – | -14 | LD50 at 168 h (Acute toxicity (LD50); po, single p.o. administration): 400 to 630 mg/kg
12 | Cc1cc(N2CCSCC2)c(C#N)c(C)[n+]1[O-].Cl [Example 1, 3-Cyano-2,6-dimethyl-4-(4-thiomorpholinyl)pyridine 1-oxide hydrochloride] | 135 | -50 | minimal effective dose ([1]; mouse, oral, 90 minutes before scopolamine 3 mg/kg s.c.): 25 mg/kg; effectiveness relative to piracetam (from MED) ([1]; mouse, oral, passive avoidance): four times as effective as piracetam; LD50 at 168 h (Acute toxicity (LD50); po, single p.o. administration): 1190 mg/kg; protective action against GBL-induced EEG changes (rat; 100 and 200 mg/kg i.p.): strong, dose-dependent protective action; protective action against GBL compared with piracetam (rat; i.p.): far exceeded that of the comparison product piracetam
